Measured values: patent US20090118332A1, “Therapeutic Agents - 551” (AstraZeneca AB, priority 2006, published 2009)

Target: T1, human Fatty Acid Synthase (Homo sapiens, UniProt P49327)
T1 construct: made in house
Assay: Human FAS enzyme assay (decrease in NADPH fluorescence)
Type: biochemical
Settings: % inhibition at a concentration of 100 μmolar
Method in brief: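 In-house human FAS was preincubated with compound and NADPH for 15 min at room temperature in 0.1 M Tris pH 7.5 with EDTA, glutathione and BSA. Malonyl CoA and acetyl CoA (500 μM and 150 μM in the added mix) were then added for 60 min. IC50 came from time-zero-subtracted NADPH fluorescence (340/460 nm).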

T1 sequence (P49327 whole entry): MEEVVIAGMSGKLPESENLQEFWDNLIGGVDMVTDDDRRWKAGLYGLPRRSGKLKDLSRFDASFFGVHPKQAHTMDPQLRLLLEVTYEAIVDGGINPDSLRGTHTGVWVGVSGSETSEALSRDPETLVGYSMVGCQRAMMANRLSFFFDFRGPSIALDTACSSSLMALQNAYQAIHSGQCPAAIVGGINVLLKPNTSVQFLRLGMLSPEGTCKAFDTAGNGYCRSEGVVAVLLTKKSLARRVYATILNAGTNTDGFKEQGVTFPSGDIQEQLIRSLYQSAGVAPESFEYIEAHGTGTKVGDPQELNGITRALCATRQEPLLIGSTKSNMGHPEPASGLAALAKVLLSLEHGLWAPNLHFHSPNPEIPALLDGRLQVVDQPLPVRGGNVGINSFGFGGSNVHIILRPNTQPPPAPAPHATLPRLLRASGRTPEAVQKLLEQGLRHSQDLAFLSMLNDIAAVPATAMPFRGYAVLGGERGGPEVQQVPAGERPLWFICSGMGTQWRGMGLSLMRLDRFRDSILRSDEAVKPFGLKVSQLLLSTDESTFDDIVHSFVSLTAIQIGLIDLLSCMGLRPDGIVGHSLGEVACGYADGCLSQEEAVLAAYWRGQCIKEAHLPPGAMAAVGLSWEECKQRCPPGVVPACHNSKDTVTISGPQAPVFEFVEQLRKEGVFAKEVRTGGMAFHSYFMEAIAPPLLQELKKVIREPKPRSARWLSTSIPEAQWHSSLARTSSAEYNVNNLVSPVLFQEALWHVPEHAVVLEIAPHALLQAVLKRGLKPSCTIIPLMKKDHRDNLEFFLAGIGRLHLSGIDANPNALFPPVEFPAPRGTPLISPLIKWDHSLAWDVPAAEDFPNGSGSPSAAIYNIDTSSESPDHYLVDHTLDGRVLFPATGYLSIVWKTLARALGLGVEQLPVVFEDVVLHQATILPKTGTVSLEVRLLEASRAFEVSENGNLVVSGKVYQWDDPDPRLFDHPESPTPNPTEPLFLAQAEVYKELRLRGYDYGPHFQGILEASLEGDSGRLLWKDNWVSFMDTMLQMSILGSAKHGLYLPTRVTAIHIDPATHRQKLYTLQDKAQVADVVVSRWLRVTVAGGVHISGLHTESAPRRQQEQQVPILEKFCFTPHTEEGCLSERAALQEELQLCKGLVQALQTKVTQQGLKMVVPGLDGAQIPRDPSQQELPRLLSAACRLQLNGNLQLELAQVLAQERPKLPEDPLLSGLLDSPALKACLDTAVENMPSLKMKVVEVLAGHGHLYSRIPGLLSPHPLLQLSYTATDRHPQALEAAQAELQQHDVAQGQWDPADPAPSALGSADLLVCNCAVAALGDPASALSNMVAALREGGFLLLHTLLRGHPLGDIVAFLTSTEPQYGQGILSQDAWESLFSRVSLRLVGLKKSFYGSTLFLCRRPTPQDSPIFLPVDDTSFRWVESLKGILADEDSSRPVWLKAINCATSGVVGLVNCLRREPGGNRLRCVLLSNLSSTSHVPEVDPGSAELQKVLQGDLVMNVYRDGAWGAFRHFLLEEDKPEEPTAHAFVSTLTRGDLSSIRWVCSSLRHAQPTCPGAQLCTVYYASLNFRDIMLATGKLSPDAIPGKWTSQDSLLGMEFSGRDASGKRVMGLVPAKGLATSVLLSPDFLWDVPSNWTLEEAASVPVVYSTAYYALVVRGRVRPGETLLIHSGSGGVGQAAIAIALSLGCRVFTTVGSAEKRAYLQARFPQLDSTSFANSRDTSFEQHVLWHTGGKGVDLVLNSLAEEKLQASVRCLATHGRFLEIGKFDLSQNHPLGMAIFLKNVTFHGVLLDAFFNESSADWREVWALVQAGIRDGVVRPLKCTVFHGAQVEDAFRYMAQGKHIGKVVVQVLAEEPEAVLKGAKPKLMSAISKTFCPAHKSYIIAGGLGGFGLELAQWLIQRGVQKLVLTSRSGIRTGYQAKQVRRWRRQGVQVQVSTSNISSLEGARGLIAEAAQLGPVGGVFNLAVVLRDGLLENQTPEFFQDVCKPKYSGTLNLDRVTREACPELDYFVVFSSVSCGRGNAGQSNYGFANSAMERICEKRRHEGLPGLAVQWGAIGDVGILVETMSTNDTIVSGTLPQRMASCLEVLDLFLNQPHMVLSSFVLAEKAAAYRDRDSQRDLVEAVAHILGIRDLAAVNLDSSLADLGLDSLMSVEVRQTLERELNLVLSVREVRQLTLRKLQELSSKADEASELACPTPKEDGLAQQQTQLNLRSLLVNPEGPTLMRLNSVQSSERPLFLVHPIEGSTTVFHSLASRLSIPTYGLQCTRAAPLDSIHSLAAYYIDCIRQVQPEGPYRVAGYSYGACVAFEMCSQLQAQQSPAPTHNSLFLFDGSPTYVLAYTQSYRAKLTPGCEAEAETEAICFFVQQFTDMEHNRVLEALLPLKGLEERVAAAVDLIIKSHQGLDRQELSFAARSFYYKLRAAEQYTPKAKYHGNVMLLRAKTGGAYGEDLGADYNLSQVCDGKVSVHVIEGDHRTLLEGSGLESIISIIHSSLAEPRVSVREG

Row | inhibition at 100 µM [%] | Structure (SMILES)
1 | 84.6 | Cc1ccc(C(=O)N2CCC(c3ccc(C#N)cc3)CC2)cc1NC(=O)NC1CCCC[C@@H]1C(N)=O (stereo partly drawn) [Example 134, (1S)-2-[[5-[4-(4-cyanophenyl)piperidine-1-carbonyl]-2-methyl-phenyl]carbamoylamino]cyclohexane-1-carboxamide]
2 | 81.1 | Cc1ccc(C(=O)N2CCC(c3ccc(C#N)cc3)CC2)cc1NC(=O)NCCN1CCNC1=O [Example 135, 1-[5-[4-(4-cyanophenyl)piperidine-1-carbonyl]-2-methyl-phenyl]-3-[2-(2-oxoimidazolidin-1-yl)ethyl]urea]
3 | 80.9 | Cc1ccc(C(=O)N2CCC(c3ccc(C#N)cc3)CC2)cc1NC(=O)NCc1cc(=O)[nH]o1 [Example 136, 1-[5-[4-(4-cyanophenyl)piperidine-1-carbonyl]-2-methyl-phenyl]-3-[(3-oxo-1,2-oxazol-5-yl)methyl]urea]
4 | 87.9 | Cc1ccc(C(=O)N2CCC(c3ccc(C#N)cc3)CC2)cc1NC(=O)NCCN1CCCC1 [Example 137, 1-[5-[4-(4-cyanophenyl)piperidine-1-carbonyl]-2-methyl-phenyl]-3-(2-pyrrolidin-1-ylethyl)urea]
5 | 83.7 | Cc1ccc(C(=O)N2CCC(c3ccc(C#N)cc3)CC2)cc1NC(=O)NCCCN(C)C [Example 138, 1-[5-[4-(4-cyanophenyl)piperidine-1-carbonyl]-2-methyl-phenyl]-3-(3-dimethylaminopropyl)urea]
6 | 87 | Cc1ccc(C(=O)N2CCC(c3ccc(C#N)cc3)CC2)cc1NC(=O)NCCc1c[nH]cn1 [Example 139, 1-[5-[4-(4-cyanophenyl)piperidine-1-carbonyl]-2-methyl-phenyl]-3-[2-(1H-imidazol-4-yl)ethyl]urea]
7 | 79.2 | Cc1ccc(C(=O)N2CCC(c3ccc(C#N)cc3)CC2)cc1NC(=O)NCCCN1CCN(C)CC1 [Example 140, 1-[5-[4-(4-cyanophenyl)piperidine-1-carbonyl]-2-methyl-phenyl]-3-[3-(4-methylpiperazin-1-yl)propyl]urea]
8 | 82.1 | Cc1ccc(C(=O)N2CCC(c3ccc(C#N)cc3)CC2)cc1NC(=O)NCCCN(CCO)CCO [Example 141, 3-[3-(bis(2-hydroxyethyl)amino)propyl]-1-[5-[4-(4-cyanophenyl)piperidine-1-carbonyl]-2-methyl-phenyl]urea]
9 | 80.3 | Cc1ccc(C(=O)N2CCC(c3ccc(C#N)cc3)CC2)cc1NC(=O)NCCCCN(C)C [Example 142, 1-[5-[4-(4-cyanophenyl)piperidine-1-carbonyl]-2-methyl-phenyl]-3-(4-dimethylaminobutyl)urea]
10 | 81.7 | Cc1ccc(C(=O)N2CCC(c3ccc(C#N)cc3)CC2)cc1NC(=O)NCCC1CCCN1C (centres unmarked) [Example 144, 1-[5-[4-(4-cyanophenyl)piperidine-1-carbonyl]-2-methyl-phenyl]-3-[2-(1-methylpyrrolidin-2-yl)ethyl]urea]
11 | 79.3 | Cc1ccc(C(=O)N2CCC(c3ccc(C#N)cc3)CC2)cc1NC(=O)NCCN(C)C [Example 145, 1-[5-[4-(4-cyanophenyl)piperidine-1-carbonyl]-2-methyl-phenyl]-3-(2-dimethylaminoethyl)urea]
12 | 89.7 | Cc1ccc(C(=O)N2CCC(c3ccc(C#N)cc3)CC2)cc1NC(=O)NCCCN1CCOCC1 [Example 146, 1-[5-[4-(4-cyanophenyl)piperidine-1-carbonyl]-2-methyl-phenyl]-3-(3-morpholin-4-ylpropyl)urea]
13 | 79.5 | COCCN1CCC(NC(=O)Nc2cc(C(=O)N3CCC(c4ccc(C#N)cc4)CC3)ccc2C)CC1 [Example 147, 1-[5-[4-(4-cyanophenyl)piperidine-1-carbonyl]-2-methyl-phenyl]-3-[1-(2-methoxyethyl)-4-piperidyl]urea]
14 | 79.5 | Cc1ccc(C(=O)N2CCC(c3ccc(C#N)cc3)CC2)cc1NC(=O)NC1CCN(C)CC1 [Example 148, 1-[5-[4-(4-cyanophenyl)piperidine-1-carbonyl]-2-methyl-phenyl]-3-(1-methyl-4-piperidyl)urea]
15 | 80.2 | CCN1CCC[C@H]1CNC(=O)Nc1cc(C(=O)N2CCC(c3ccc(C#N)cc3)CC2)ccc1C [Example 149, 3-[5-[4-(4-cyanophenyl)piperidine-1-carbonyl]-2-methyl-phenyl]-1-[[(2S)-1-ethylpyrrolidin-2-yl]methyl]urea]
16 | 85 | Cc1ccc(C(=O)N2CCC(c3ccc(C#N)cc3)CC2)cc1NC(=O)NCc1cncn1C [Example 150, 1-[5-[4-(4-cyanophenyl)piperidine-1-carbonyl]-2-methyl-phenyl]-3-[(3-methylimidazol-4-yl)methyl]urea]
17 | 92.1 | Cc1ccc(C(=O)N2CCC(c3ccc(C#N)cc3)CC2)cc1NC(=O)NCC1CCCO1 (centres unmarked) [Example 151, 1-[5-[4-(4-cyanophenyl)piperidine-1-carbonyl]-2-methyl-phenyl]-3-(oxolan-2-ylmethyl)urea]
18 | 95.1 | COCCNC(=O)Nc1cc(C(=O)N2CCC(c3ccc(C#N)cc3)CC2)ccc1C [Example 152, 1-[5-[4-(4-cyanophenyl)piperidine-1-carbonyl]-2-methyl-phenyl]-3-(2-methoxyethyl)urea]
19 | 88.2 | Cc1ccc(C(=O)N2CCC(c3ccc(C#N)cc3)CC2)cc1NC(=O)NCCCOC(C)C [Example 153, 1-[5-[4-(4-cyanophenyl)piperidine-1-carbonyl]-2-methyl-phenyl]-3-(3-propan-2-yloxypropyl)urea]
20 | 93 | COCCCNC(=O)Nc1cc(C(=O)N2CCC(c3ccc(C#N)cc3)CC2)ccc1C [Example 154, 1-[5-[4-(4-cyanophenyl)piperidine-1-carbonyl]-2-methyl-phenyl]-3-(3-methoxypropyl)urea]
21 | 90.1 | COCC(C)NC(=O)Nc1cc(C(=O)N2CCC(c3ccc(C#N)cc3)CC2)ccc1C (centres unmarked) [Example 155, 1-[5-[4-(4-cyanophenyl)piperidine-1-carbonyl]-2-methyl-phenyl]-3-(1-methoxypropan-2-yl)urea]
22 | 92.2 | CSCCNC(=O)Nc1cc(C(=O)N2CCC(c3ccc(C#N)cc3)CC2)ccc1C [Example 156, 1-[5-[4-(4-cyanophenyl)piperidine-1-carbonyl]-2-methyl-phenyl]-3-(2-methylsulfanylethyl)urea]
23 | 92.7 | CSCCCNC(=O)Nc1cc(C(=O)N2CCC(c3ccc(C#N)cc3)CC2)ccc1C [Example 157, 1-[5-[4-(4-cyanophenyl)piperidine-1-carbonyl]-2-methyl-phenyl]-3-(3-methylsulfanylpropyl)urea]
24 | 89.1 | CCOCCCNC(=O)Nc1cc(C(=O)N2CCC(c3ccc(C#N)cc3)CC2)ccc1C [Example 158, 3-[5-[4-(4-cyanophenyl)piperidine-1-carbonyl]-2-methyl-phenyl]-1-(3-ethoxypropyl)urea]
25 | 88 | COC(C)(C)CNC(=O)Nc1cc(C(=O)N2CCC(c3ccc(C#N)cc3)CC2)ccc1C [Example 159, 1-[5-[4-(4-cyanophenyl)piperidine-1-carbonyl]-2-methyl-phenyl]-3-(2-methoxy-2-methyl-propyl)urea]

Row | Structure (SMILES) | inhibition at 100 µM [%]
26 | Cc1ccc(C(=O)N2CCC(c3ccc(C#N)cc3)CC2)cc1NC(=O)NC1CN2CCC1CC2 (centres unmarked) [Example 143, 3-(1-azabicyclo[2.2.2]oct-8-yl)-1-[5-[4-(4-cyanophenyl)piperidine-1-carbonyl]-2-methyl-phenyl]urea] | 84.4
